In patent publication US20230390345A1, “COMBINATION THERAPY COMPRISING HER-2-DC1 VACCINE, A PROBIOTIC, AND SEMAPHORIN” (H. LEE MOFFITT CANCER CENTER AND RESEARCH INSTITUTE, INC., priority 2020, published 2023) one finds tumor growth data, which are given here for 1 molecule.

One test concerns TUBO tumors. Briefly: Monotherapies in HER2+ BC murine model (FIG. 8). The format is in vivo, Balb/C mice. To be noted: monotherapy. On the procedure: (§1) Balb/C mice or C57BL/6 mice received tumor cells on day 0 followed by different treatments; two doses of Taxol given intraperitoneally (i.p.) once a week; CDK inhibitor, abemaciclib was administered by oral gavage till end point; Anti-PD-L1 was given i.p. twice a week until end point; DC1 vaccine was given intratumorally.

Another test has as its system 4T1. The test is described as follows: Therapies in TNBC model 4T1 (FIG. 8). The format is in vivo, Balb/C mice. To be noted: 4T1 TNBC model. On the procedure:
as §1

Molecules are shown by their SMILES.

On to `CC(=O)O[C@H]1C(=O)[C@@]2(C)[C@H]([C@H](OC(=O)c3ccccc3)[C@]3(O)C[C@H](OC(=O)[C@H](O)[C@@H](NC(=O)c4ccccc4)c4ccccc4)C(C)=C1C3(C)C)[C@]1(OC(C)=O)CO[C@@H]1C[C@@H]2O` [taxol, paclitaxel], for which the tumor growth result in the test with TUBO tumors was “modestly delayed tumor growth”; in the test with 4T1 it was “no effect on tumor growth”.
